Results published in patent publication US6846803B1, “Antagonists specific for the corticotropin-releasing factor receptor type 2 (CRFR2)” (priority 1998, dated 2005).
Like-named read-outs stand apart in the source and are kept apart here. Marks after values point to notes of the source that are not given here. Residues, ends and D or L forms follow the SMILES beside them. *: point of attachment. X1 = O=C(c1ccc(C2(C(F)(F)F)N=N2)cc1)*

Columns and labels:
mCRFR2β [1] = biological target: T1, mCRFR2β (Mus musculus, UniProt Q60748); assay: cAMP stimulation / inhibition of Svg-stimulated cAMP production in HEK-mCRFR2β cells; format: cell-based; set-up: Emax: dose or concentration left out as unconfirmed; details: for mCRFR2β relative in vitro potency: Table 2, Svg alone = 1.00 (lower = stronger inhibition); for mCRFR2β relative in vitro potency / HEK-mCRFR2β cells rel. pot. (relative potency): 10 nM antagonist, cAMP production stimulated by 1 nM Svg; for HEK-mCRFR2β cells rel. pot. (relative potency): Table 4, Svg alone = 1.00
T1 construct: expressed in transfected cells; host or cells: HEK 293 cells, stably transfected (HEK-mCRFR2β); membrane homogenates
Experimental: (§1) HEK-rCRFR1 cells or HEK-mCRFR2β cells were incubated with different CRF agonists in the presence or absence of 1 μM or 10 nM antagonist, or CRF antagonist (c=1 μM) alone. After removal of the medium, cells were lyzed with aqueous 6% trichloroacetic acid (5 min, 100° C.) (Rühmann, A., A. K. E. Köpke, F. M. Dautzenberg, and J. Spiess, Proc. Natl. Acad. Sci. USA 93: 10609-10613, 1996). The cell lysates were stored at −70° C. until assayed with a RIA kit (Amersham, Little Chalfont). […] Statistical significance was determined across groups with ANOVA, and significant differences between groups were determined by post hoc comparison using the Dunn test.
(§2) Intrinsic activities were measured at peptide concentrations generating maximal formation of cAMP in HEK-rCRFR1 or HEK-mCRFR2β cells.
Target sequence in this assay (Q60748 1-431 isoform Q60748-2): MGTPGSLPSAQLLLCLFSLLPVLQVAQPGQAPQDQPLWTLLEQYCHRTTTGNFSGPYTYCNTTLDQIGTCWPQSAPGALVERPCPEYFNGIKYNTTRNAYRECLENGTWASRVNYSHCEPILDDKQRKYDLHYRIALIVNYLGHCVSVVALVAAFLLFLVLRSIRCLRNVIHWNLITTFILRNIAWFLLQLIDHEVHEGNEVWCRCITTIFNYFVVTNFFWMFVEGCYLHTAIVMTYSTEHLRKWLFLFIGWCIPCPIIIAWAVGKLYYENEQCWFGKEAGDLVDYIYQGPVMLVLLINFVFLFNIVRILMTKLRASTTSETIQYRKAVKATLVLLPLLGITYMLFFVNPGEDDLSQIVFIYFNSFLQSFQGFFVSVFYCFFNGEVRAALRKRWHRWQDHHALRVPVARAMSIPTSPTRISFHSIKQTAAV

mCRFR2β [2] = biological target: T1, mCRFR2β; assay: Displacement of [^125I-Tyr^0]Svg from membranes of HEK-mCRFR2β cells; format: binding; details: for Selectivity: Kd(rCRFR1)(peptide)/Kd(rCRFR1)(astressin) × Kd(mCRFR2β)(astressin)/Kd(mCRFR2β)(peptide)
Experimental: Binding assays were performed in 96-well MultiScreen plates (Millipore, Eschborn, Germany) with GF/B filters (pore size 1.0 μm). […] After incubation (60 min, 23° C.), membrane suspension was aspirated through the plate, followed by two washes with assay buffer (0.2 ml, 23°). Radioactivity of the punched filters was measured with a 1470 WIZARD automatic gamma counter (Berthold, Hannover). […] Statistical analysis was performed with ANOVA, and significant differences between groups were determined by post hoc comparison using the Dunn test.
Membrane homogenates of human embryonic kidney (HEK) 293 cells stably transfected with cDNA coding for rat CRF receptor, type 1 (rCRFR1) or mouse CRF receptor, type 2β (mCRFR2β) were prepared according to standard protocols (see, e.g., Sambrook et al., Molecular Cloning: A Laboratory Manual, 2nd. Edition, Cold Spring Habor Laboratory Press, Cold Spring Habor, N.Y., 1989; Ausubel et al., Current Protocols in Molecular Biology, Green Publishing Associates and Wiley Interscience, NY, 1989).

rCRFR1 = biological target: T2, rCRFR1 (Rattus norvegicus, UniProt P35353); assay: cAMP stimulation / inhibition of oCRF-stimulated cAMP production in HEK-rCRFR1 cells; format: cell-based; details: for HEK-rCRFR1 cells rel. pot. (relative potency): Table 4, oCRF alone = 1.00; for HEK-rCRFR1 cells rel. pot. (relative potency) / rCRFR1 relative in vitro potency: 1 μM antagonist, cAMP production stimulated by 1 nM oCRF; for rCRFR1 relative in vitro potency: Table 2, oCRF alone = 1.00 (lower = stronger inhibition)
T2 construct: expressed in transfected cells; host or cells: HEK 293 cells, stably transfected (HEK-rCRFR1)
T2 sequence (P35353 24-415): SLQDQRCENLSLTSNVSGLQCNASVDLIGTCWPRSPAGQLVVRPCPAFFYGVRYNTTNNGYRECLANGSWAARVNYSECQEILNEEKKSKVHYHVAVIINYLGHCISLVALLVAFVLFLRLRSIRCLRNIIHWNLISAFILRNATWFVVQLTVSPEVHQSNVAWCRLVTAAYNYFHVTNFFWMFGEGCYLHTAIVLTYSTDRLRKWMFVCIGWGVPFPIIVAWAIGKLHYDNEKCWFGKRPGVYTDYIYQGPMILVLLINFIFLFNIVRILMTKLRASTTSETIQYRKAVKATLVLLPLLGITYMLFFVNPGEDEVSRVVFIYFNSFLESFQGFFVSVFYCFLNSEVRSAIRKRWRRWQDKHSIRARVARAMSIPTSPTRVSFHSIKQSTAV
Experimental: as §1, §2

[3] = read-out: HEK-mCRFR2β cells rel. IA (relative intrinsic activity)
[4] = read-out: mCRFR2β % IA (intrinsic activity)
[5] = read-out: HEK-rCRFR1 cells rel. IA (relative intrinsic activity)

| Compound | mCRFR2β relative in vitro potency (mCRFR2β [1]) | HEK-mCRFR2β cells rel. pot. (relative potency) (mCRFR2β [1]) | Emax (mCRFR2β [1]; [3]) | Emax (mCRFR2β [1]; [4]) | Selectivity (mCRFR2β [2]; Table 1) | Selectivity (mCRFR2β [2]; Table 3) | Emax (rCRFR1; [5]) | Emax (rCRFR1; read-out: rCRFR1 % IA (intrinsic activity)) | Kd (mCRFR2β [2]) | HEK-rCRFR1 cells rel. pot. (relative potency) (rCRFR1) | rCRFR1 relative in vitro potency (rCRFR1) |
| --- | --- | --- | --- | --- | --- | --- | --- | --- | --- | --- | --- |
| CC[C@H](C)[C@H](NC(=O)[C@@H](NC(=O)[C@H](CC(=O)O)NC(=O)[C@H](CC(C)C)NC(=O)[C@H](CC(C)C)NC(=O)[C@H](CC(C)C)NC(=O)[C@H](CCCNC(=N)N)NC(=O)[C@H](CC(N)=O)NC(=O)[C@H](CC(N)=O)NC(=O)[C@H](C)NC(=O)[C@H](C)NC(=O)[C@H](CCC(N)=O)NC(=O)[C@H](CCC(N)=O)NC(=O)[C@H](CCCCN)NC(=O)[C@H](CCC(=O)O)NC(=O)[C@H](CCCCN)NC(=O)[C@H](CCC(=O)O)NC(=O)[C@H](CCC(N)=O)NC(=O)[C@H](CCCCN)NC(=O)[C@H](CCC(=O)O)NC(=O)[C@@H](NC(=O)[C@H](CCC(=O)O)NC(=O)[C@@H](NC(=O)[C@H](CCSC)NC(=O)[C@H](CCCCN)NC(=O)[C@H](CCCNC(=N)N)NC(=O)[C@H](CC(C)C)NC(=O)[C@H](CC(C)C)NC(=O)[C@H](CCC(=O)O)NC(=O)[C@H](CC(C)C)NC(=O)[C@H](CO)NC(=O)[C@H](CC(C)C)NC(=O)[C@H](CC(=O)O)NC(=O)[C@@H](NC(=O)[C@H](CO)NC(=O)[C@@H](NC(=O)[C@@H]1CCCN1C(=O)[C@@H]1CCCN1C(=O)CNC(=O)[C@@H]1CCC(=O)N1)[C@@H](C)CC)[C@@H](C)CC)[C@@H](C)CC)[C@@H](C)CC)[C@@H](C)O)C(N)=O [compound 2, Svg, reference compound] | 1.00 | 1.00 | 100% | 100% | 0.109 | 0.109 | – | – | – | – | – |
| CC[C@H](C)[C@H](NC(=O)[C@@H](NC(=O)[C@H](CC(=O)O)NC(=O)[C@H](CC(C)C)NC(=O)[C@H](CC(C)C)NC(=O)[C@H](CC(C)C)NC(=O)[C@H](CCCNC(=N)N)NC(=O)[C@H](CC(N)=O)NC(=O)[C@H](CC(N)=O)NC(=O)[C@H](C)NC(=O)[C@H](C)NC(=O)[C@H](CCC(N)=O)NC(=O)[C@H](CCC(N)=O)NC(=O)[C@H](CCCCN)NC(=O)[C@H](CCC(=O)O)NC(=O)[C@H](CCCCN)NC(=O)[C@H](CCC(=O)O)NC(=O)[C@H](CCC(N)=O)NC(=O)[C@H](CCCCN)NC(=O)[C@H](CCC(=O)O)NC(=O)[C@@H](NC(=O)[C@H](CCC(=O)O)NC(=O)[C@@H](NC(=O)[C@H](CCSC)NC(=O)[C@H](CCCCN)NC(=O)[C@H](CCCNC(=N)N)NC(=O)[C@H](CC(C)C)NC(=O)[C@H](CC(C)C)NC(=O)[C@H](Cc1c[nH]cn1)NC(=O)[C@H](N)Cc1ccccc1)[C@@H](C)CC)[C@@H](C)CC)[C@@H](C)O)C(N)=O [compound 11, [DPhe^11, His^12]Svg(11-40)] | – | – | 0.4 ± 0.1% | 0.4 ± 0.1% | – | – | 4 ± 1% | 4 ± 1% | 1.4 ± 0.4 nM | – | – |
| CC[C@H](C)[C@H](NC(=O)[C@@H](NC(=O)[C@H](CC(=O)O)NC(=O)[C@H](CC(C)C)NC(=O)[C@H](CC(C)C)NC(=O)[C@H](CC(C)C)NC(=O)[C@H](CCCNC(=N)N)NC(=O)[C@H](CC(N)=O)NC(=O)[C@H](CC(N)=O)NC(=O)[C@H](C)NC(=O)[C@H](C)NC(=O)[C@H](CCC(N)=O)NC(=O)[C@H](CCC(N)=O)NC(=O)[C@H](CCCCN)NC(=O)[C@H](CCC(=O)O)NC(=O)[C@H](CCCCN)NC(=O)[C@H](CCC(=O)O)NC(=O)[C@H](CCC(N)=O)NC(=O)[C@H](CCCCN)NC(=O)[C@H](CCC(=O)O)NC(=O)[C@@H](NC(=O)[C@H](CCC(=O)O)NC(=O)[C@@H](NC(=O)[C@H](CCSC)NC(=O)[C@H](CCCCN)NC(=O)[C@H](CCCNC(=N)N)NC(=O)[C@H](CC(C)C)NC(=O)[C@H](CC(C)C)NC(=O)[C@H](Cc1c[nH]cn1)NC(=O)c1ccc(C2(C(F)(F)F)N=N2)cc1)[C@@H](C)CC)[C@@H](C)CC)[C@@H](C)O)C(N)=O [compound 17, ATB-[His^12]Svg(12-40)] (X1-HLLRKMIEIEKQEKEKQQAANNRLLLDTI-NH2) | – | 0.48 ± 0.04 | 0.7 ± 0.2% | – | – | 32.26 | 15 ± 1% | – | 3.1 ± 0.2 nM | 0.54 ± 0.06 | – |
| CC[C@H](C)[C@H](NC(=O)[C@@H](NC(=O)[C@H](CC(=O)O)NC(=O)[C@H](CC(C)C)NC(=O)[C@H](CC(C)C)NC(=O)[C@H](CC(C)C)NC(=O)[C@H](CCCNC(=N)N)NC(=O)[C@H](CC(N)=O)NC(=O)[C@H](CC(N)=O)NC(=O)[C@H](C)NC(=O)[C@H](C)NC(=O)[C@H](CCC(N)=O)NC(=O)[C@H](CCC(N)=O)NC(=O)[C@H](CCCCN)NC(=O)[C@H](CCC(=O)O)NC(=O)[C@H](CCCCN)NC(=O)[C@H](CCC(=O)O)NC(=O)[C@H](CCC(N)=O)NC(=O)[C@H](CCCCN)NC(=O)[C@H](CCC(=O)O)NC(=O)[C@@H](NC(=O)[C@H](CCC(=O)O)NC(=O)[C@@H](NC(=O)[C@H](CCSC)NC(=O)[C@H](CCCCN)NC(=O)[C@H](CCCNC(=N)N)NC(=O)[C@H](CC(C)C)NC(=O)[C@H](CC(C)C)NC(=O)[C@H](Cc1c[nH]cn1)NC(=O)[C@@H](N)Cc1ccc(O)cc1)[C@@H](C)CC)[C@@H](C)CC)[C@@H](C)O)C(N)=O [compound 18, [Tyr^11, His^12]Svg(11-40)] (H-YHLLRKMIEIEKQEKEKQQAANNRLLLDTI-NH2; N-terminus assumed) | – | 0.37 ± 0.05 | 0.8 ± 0.2% | – | – | 31.64 | 3 ± 1% | – | 4.9 ± 1.8 nM | 0.79 ± 0.07 | – |
| CC[C@H](C)[C@H](NC(=O)[C@@H](NC(=O)[C@H](CC(=O)O)NC(=O)[C@H](CC(C)C)NC(=O)[C@H](CC(C)C)NC(=O)[C@H](CC(C)C)NC(=O)[C@H](CCCNC(=N)N)NC(=O)[C@H](CC(N)=O)NC(=O)[C@H](CC(N)=O)NC(=O)[C@H](C)NC(=O)[C@H](C)NC(=O)[C@H](CCC(N)=O)NC(=O)[C@H](CCC(N)=O)NC(=O)[C@H](CCCCN)NC(=O)[C@H](CCC(=O)O)NC(=O)[C@H](CCCCN)NC(=O)[C@H](CCC(=O)O)NC(=O)[C@H](CCC(N)=O)NC(=O)[C@H](CCCCN)NC(=O)[C@H](CCC(=O)O)NC(=O)[C@@H](NC(=O)[C@H](CCC(=O)O)NC(=O)[C@@H](NC(=O)[C@H](CCSC)NC(=O)[C@H](CCCCN)NC(=O)[C@H](CCCNC(=N)N)NC(=O)[C@H](CC(C)C)NC(=O)[C@H](CC(C)C)NC(=O)[C@H](CCC(=O)O)NC(=O)[C@@H](N)Cc1ccc(O)cc1)[C@@H](C)CC)[C@@H](C)CC)[C@@H](C)O)C(N)=O [compound 19, [Tyr^11]Svg(11-40)] | – | 0.67 ± 0.04 | 0.7 ± 0.2% | – | – | 32.97 | 9 ± 1% | – | 20.8 ± 1.6 nM | 0.82 ± 0.06 | – |
| [DLeu^11, Glu^12]rUcn(11-40) [compound 9] | 0.81 ± 0.06 | – | – | – | 2.29 | – | – | – | – | – | 0.56 ± 0.05 |
| [DPhe^11, Glu^12]rUcn(11-40) [compound 8] | 0.61 ± 0.02 | – | – | – | 5.04 | – | – | – | – | – | 0.42 ± 0.11 |
| [DPhe^11]rUcn(11-40) [compound 7] | 0.57 ± 0.06 | – | – | – | 4.45 | – | – | – | – | – | 0.18 ± 0.03^g |
| [DPhe^12, Nle^21,38]h/rCRF(12-41) [compound 5, reference compound] | 0.87 ± 0.08^i | – | – | – | 1.84 | – | – | – | – | – | 0.33 ± 0.08^h,i |
| [DPhe^12]oCRF(12-41) [compound 6] | 0.92 ± 0.07^k | – | – | – | 1.32 | – | – | – | – | – | 0.89 ± 0.07 |
